Here are results for twelve molecules from patent US20100093777A1 (Takeda Pharmaceutical Company Limited, priority 2007, published 2010).

Each structure is given as a SMILES string. pIC50: −log10 of the molar value.

In one experiment the target is T1, Human ACC1 (Homo sapiens, UniProt Q13085).
T1 construct: His tag (from the pFAST-BacHTc vector); own knowledge: N-terminal 6xHis with TEV site; made in house; host or cells: SF-9 insect cells, recombinant baculovirus BAC-ACC1
The experiment can be described thus: Measurement of ACC1 inhibitory activity (recombinant enzyme, malachite green absorbance). The note with it: recombinant human ACC1 8 μg/ml; 30° C.; 200 μM ATP, 200 μM Acetyl-CoA; absorbance 620 nm. It is filed as biochemical. The protocol:
The ACC1 inhibitory action of the compound of the present invention was evaluated by the following method.
Human ACC1 gene was cloned by PCR using a human liver cDNA library (Clontech) as a template and Primer 1 and Primer 2 shown below. Primer 1 and Primer 2 were prepared by adding SalI, NotI restriction enzyme recognition sequence based on the information of the base sequence (Genbank Accession U19822) of human ACC1 gene.
PCR was performed using a Pyrobest DNA polymerase (TAKARA BIO INC.) The obtained PCR product was cloned to pT7 Blue vector (Novagen) and, after confirmation of the base sequence, digested with restriction enzymes SalI and NotI. The obtained DNA fragment was inserted to pFAST-BacHTc (Invitrogen) digested with restriction enzymes SalI and NotI to give expression plasmid ACC1/pFAST-BacHTc.
Using the expression plasmid and BAC-TO-BAC Baculovirus Expression System (Invitrogen), virus stock BAC-ACC1 of recombinant Baculovirus was prepared.
SF-9 cells (Invitrogen) were inoculated to a medium (1 L) for insect cells (Sf-900IISFM medium (Invitrogen) containing 10% fetal bovine serum (Trace), 50 mg/L Gentamicin (Invitrogen) and 0.1% Pluronic F-68 (Invitrogen)) at 1×10^6 cells/mL, and cultured with shaking at 27° C., 100 rpm in a 2 L Erlenmeyer flask.
After 24 hr of the culture, recombinant Baculovirus BAC-ACC1 (10 mL) was added, and the cells were further cultured for 3 days. The culture medium was centrifuged at 1000×g for 5 min to give virus-infected cells. The cells were washed with phosphate buffered saline (Invitrogen), and centrifuged under the same conditions, and the obtained cells were cryopreserved at −80° C.
The cryopreserved cells were thawed in ice and suspended in 100 mL of 25 mM HEPES buffer (pH 7.5) containing 10% Glycerol, 0.13 M NaCl, 1 mM EDTA, 25 mM Sodium β-Glycerophosphate and 1 mM Sodium Orthovanadate, and supplemented with Complete Protease Inhibitor (Nippon Boehringer Ingelheim Co., Ltd.). The obtained suspension was homogenized 3 times in a polytron homogenizer (Kinematica) at 20,000 rpm for 30 sec. The obtained cell disruption solution was clarified by centrifugation at 185700×g for 50 min, and filtered through a 0.45 μm filter. The filtrate was passed through a column packed with 12 mL of Ni-NTA Super Flow Gel (QUIAGEN) at a flow rate of about 5 mL/min. The column was washed with buffer A (50 mM HEPES (pH 7.5) containing 0.3 M NaCl), further washed with buffer A containing 20 mM Imidazole, and eluted with buffer A containing 100 mM Imidazole. The eluate was concentrated with Vivaspin 20 (Vivascience) with a molecular weight cut off of 30K. The obtained concentrate was dialyzed against Sephadex G-25 (Amersham Biosciences, 358 ml) equilibrated with 50 mM HEPES (pH 7.5) containing 10 mM MgCl2, 2 mM Dithiothreitol, 10 mM Tripotassium Citrate and 0.3 M NaCl. The inner dialysate was concentrated with Vivaspin 20 (Vivascience) with a molecular weight cut off of 30K, and the concentrate was filtered through a 0.22 μm filter to give ACC1. The obtained ACC1 was cryopreserved at −80° C.
ACC1 (0.93 mg/ml) obtained in the above-mentioned (2) was diluted with an enzyme reaction buffer (50 mM HEPES (pH 7.5), 10 mM MgCl2, 10 mM Tripotassium Citrate, 2 mM Dithiothreitol, 0.75 mg/ml Fatty acid free BSA) to concentration of 8 μg/ml, and the mixture was added to each well of 384 well assay plate (Nunc 265196) by 10 μl.
Thereafter, ACC1 inhibitory rate (%) was measured in the same manner as in the below-mentioned Experimental Example 2-(3), and IC50 value was calculated.
ACC2 (Nd) (1.1 mg/ml) obtained in the above-mentioned (2) was diluted with an enzyme reaction buffer (50 mM HEPES (pH 7.5), 10 mM MgCl2, 10 mM Tripotassium Citrate, 2 mM Dithiothreitol, 0.75 mg/ml Fatty acid free BSA) to a concentration of 6.4 μg/ml, and the mixture was added to each well of a 384 well assay plate (Nunc 265196) by 10 μl. […]

Experiment [1] has as its target T2, Human ACC2 (Nd, N terminal deleted) (Homo sapiens, UniProt O00763).
T2 construct: His tag (from the pFAST-BacHTa vector); own knowledge: N-terminal 6xHis with TEV site; made in house; host or cells: SF-9 insect cells, recombinant baculovirus BAC-ACC2 (Nd)
The experiment can be described thus: Measurement of ACC2 inhibitory activity (recombinant ACC2 (Nd), malachite green absorbance). It is filed as biochemical. The note with it: recombinant human ACC2 (Nd) 6.4 μg/ml; 30° C.; 200 μM ATP, 200 μM Acetyl-CoA; absorbance 620 nm. The protocol: The ACC2 inhibitory action of the compound of the present invention was evaluated by the following method.
Human ACC2 gene was cloned by PCR using a human skeletal muscle cDNA library (Clontech) as a template and Primer 1 and Primer 2 shown below. Primer 1 and Primer 2 were prepared by adding SalI, XbaI restriction enzyme recognition sequences based on the information of the base sequence (Genbank Accession U89344) of human ACC2 gene.
PCR was performed using Pyrobest DNA polymerase (TAKARA BIO INC.). The obtained PCR product was cloned to pT7 Blue vector (Novagen) and, after confirmation of the base sequence, digested with restriction enzymes SalI and XbaI. The obtained DNA fragment was inserted into pFAST-BacHTa (Invitrogen) digested with restriction enzymes SalI and XbaI to give expression plasmid ACC2/pFAST-BacHTa.
PCR was performed using the expression plasmid as a template and Primer 3 and Primer 4 shown below to prepare a plasmid to be used for expression of ACC2 free of mitochondrial targeting sequence.
PCR was performed using Pyrobest-DNA polymerase (TAKARA BIO INC.). The obtained PCR product was cloned to pT7 Blue vector (Novagen) and, after confirmation of the base sequence, digested with restriction enzymes SalI and AflII. The obtained DNA fragment was inserted into pFAST-BacHTa (Invitrogen) digested with restriction enzymes SalI and AflII to give expression plasmid ACC2mito7/pFAST-BacHTa.
Using the expression plasmid and BAC-TO-BAC Baculovirus Expression System (Invitrogen), virus stock BAC-ACC2 (N terminal deleted (hereinafter Nd)) of recombinant Baculovirus was prepared.
SF-9 cells (Invitrogen) were inoculated to a medium (2 L) for insect cells (Sf-900IISFM medium (Invitrogen) containing 10% fetal bovine serum (Trace), 50 mg/L Gentamicin (Invitrogen), 0.1% Pluronic F-68 (Invitrogen)) at 0.5×10^6 cells/mL, and cultured with shaking in Wave Bioreactor (Wave) at 27° C., 20 rpm, rocking angle […], oxygen concentration 30%.
On day 4 of the culture, 3 L of the medium for insect cells was added, the rocking angle was set to 8°, and the cells were cultured. On day 5 of the culture, 100 mL of recombinant Baculovirus BAC-ACC2 (Nd) was added, 5 L of the medium for insect cells was further added, the rocking angle was set to 11°, and the cells were cultured for 3 days. The culture medium was centrifuged at 1000×g for 10 min to give virus-infected cells. The cells were washed with phosphate buffered saline (Invitrogen) and centrifuged under the same conditions. The obtained cells were cryopreserved at −80° C.
The cryopreserved cells were thawed in ice and suspended in 900 mL of 25 mM HEPES buffer (pH 7.5) containing 10% Glycerol, 0.13 M NaCl, 1 mM EDTA, 25 mM Sodium βGlycerophosphate and 1 mM Sodium Orthovanadate, and supplemented with Complete Protease Inhibitor (Nippon Boehringer Ingelheim Co., Ltd.). The obtained suspension was homogenized 3 times in a polytron homogenizer (Kinematica) at 20,000 rpm for 30 sec. The obtained cell disruption solution was clarified by centrifugation at 31000×g for 60 min, and filtered through a 0.45 μm filter. The filtrate was passed through a column packed with 60 mL of Ni-NTA Super Flow Gel (QUIAGEN) at a flow rate of about 5 mL/min. The column was washed with buffer A (50 mM HEPES (pH 7.5) containing 0.3 M NaCl), further washed with buffer A containing 20 mM Imidazole, and eluted with buffer A containing 100 mM Imidazole. The eluate was concentrated with Vivaspin 20 (Vivascience) with a molecular weight cut off of 30K. The obtained concentrate was dialyzed against 50 mM HEPES (pH 7.5) containing 10 mM MgCl2, 2[…] Dithiothreitol, 10 mM Tripotassium Citrate and 0.3 M NaCl. The inner dialysate was filtered through a 0.22 μm filter to give ACC2 (Nd). The obtained ACC2 (Nd) was cryopreserved at −80° C.
A test compound was dissolved in dimethyl sulfoxide (DMSO) and the mixture was diluted with an enzyme reaction buffer and the resulting solution (5 μl) was added to each well.

T2 sequence (O00763 117-2458 limits assumed, stated change not applied): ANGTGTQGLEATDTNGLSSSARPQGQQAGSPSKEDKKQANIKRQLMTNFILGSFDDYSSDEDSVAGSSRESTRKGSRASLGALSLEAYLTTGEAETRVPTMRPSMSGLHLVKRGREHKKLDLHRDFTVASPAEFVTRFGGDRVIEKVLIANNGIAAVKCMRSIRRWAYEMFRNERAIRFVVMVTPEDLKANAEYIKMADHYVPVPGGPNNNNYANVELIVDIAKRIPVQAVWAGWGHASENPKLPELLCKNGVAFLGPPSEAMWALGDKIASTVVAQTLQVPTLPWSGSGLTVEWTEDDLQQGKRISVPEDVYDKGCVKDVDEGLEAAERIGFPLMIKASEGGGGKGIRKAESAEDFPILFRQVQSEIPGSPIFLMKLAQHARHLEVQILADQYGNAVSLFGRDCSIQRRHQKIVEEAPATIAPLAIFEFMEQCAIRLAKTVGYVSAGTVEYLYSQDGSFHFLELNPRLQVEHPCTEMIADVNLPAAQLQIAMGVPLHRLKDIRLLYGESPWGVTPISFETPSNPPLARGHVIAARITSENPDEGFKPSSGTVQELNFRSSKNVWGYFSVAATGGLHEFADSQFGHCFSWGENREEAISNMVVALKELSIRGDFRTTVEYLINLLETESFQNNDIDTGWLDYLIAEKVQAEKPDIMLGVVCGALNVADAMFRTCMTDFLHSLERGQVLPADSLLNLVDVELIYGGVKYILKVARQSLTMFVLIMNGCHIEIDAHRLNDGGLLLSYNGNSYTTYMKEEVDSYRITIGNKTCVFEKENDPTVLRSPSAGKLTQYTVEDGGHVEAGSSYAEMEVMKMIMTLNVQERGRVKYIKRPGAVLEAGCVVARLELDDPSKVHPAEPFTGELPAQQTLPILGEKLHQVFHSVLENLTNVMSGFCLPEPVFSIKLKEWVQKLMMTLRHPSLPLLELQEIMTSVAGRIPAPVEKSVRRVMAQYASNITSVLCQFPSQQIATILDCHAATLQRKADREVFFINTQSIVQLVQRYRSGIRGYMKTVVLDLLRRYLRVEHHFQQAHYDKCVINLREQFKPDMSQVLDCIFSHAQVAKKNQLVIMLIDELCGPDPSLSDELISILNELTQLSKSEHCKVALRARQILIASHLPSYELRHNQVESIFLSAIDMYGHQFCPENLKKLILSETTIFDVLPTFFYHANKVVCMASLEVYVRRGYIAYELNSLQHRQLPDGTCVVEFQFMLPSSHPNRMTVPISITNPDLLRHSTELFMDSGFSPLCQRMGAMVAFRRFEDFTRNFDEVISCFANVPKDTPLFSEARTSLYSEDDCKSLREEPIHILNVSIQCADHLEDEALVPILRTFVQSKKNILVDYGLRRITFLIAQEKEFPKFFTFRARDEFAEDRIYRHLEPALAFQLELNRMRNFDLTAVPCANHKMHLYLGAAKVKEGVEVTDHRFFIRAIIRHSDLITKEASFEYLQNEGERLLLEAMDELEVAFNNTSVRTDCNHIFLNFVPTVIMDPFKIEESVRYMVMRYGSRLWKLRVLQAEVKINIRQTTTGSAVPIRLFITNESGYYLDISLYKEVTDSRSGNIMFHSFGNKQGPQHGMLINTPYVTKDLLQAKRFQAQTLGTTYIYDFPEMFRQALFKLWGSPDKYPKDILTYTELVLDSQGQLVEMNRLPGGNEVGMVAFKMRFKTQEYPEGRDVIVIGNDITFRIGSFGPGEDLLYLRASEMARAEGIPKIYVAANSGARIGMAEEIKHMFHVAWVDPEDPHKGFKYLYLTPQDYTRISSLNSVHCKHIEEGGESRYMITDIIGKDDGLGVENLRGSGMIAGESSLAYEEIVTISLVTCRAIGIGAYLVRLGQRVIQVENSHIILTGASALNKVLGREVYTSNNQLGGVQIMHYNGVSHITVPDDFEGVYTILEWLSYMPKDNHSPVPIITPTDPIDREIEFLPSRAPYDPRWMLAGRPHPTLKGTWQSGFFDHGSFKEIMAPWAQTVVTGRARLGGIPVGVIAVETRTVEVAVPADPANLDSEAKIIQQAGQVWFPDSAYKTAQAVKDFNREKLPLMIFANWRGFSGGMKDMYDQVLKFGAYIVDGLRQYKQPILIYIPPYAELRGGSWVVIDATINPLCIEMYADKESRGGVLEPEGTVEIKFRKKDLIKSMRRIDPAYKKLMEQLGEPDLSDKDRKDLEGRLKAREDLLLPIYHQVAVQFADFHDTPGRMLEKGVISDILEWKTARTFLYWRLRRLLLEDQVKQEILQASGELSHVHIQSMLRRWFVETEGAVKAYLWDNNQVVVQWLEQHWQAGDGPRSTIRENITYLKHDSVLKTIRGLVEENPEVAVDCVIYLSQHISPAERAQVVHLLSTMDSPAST

For the molecule `CNC(=O)Nc1sc2ncccc2c1C(=O)N1CCC(N2CCCC3(C2)CC(C)(C)OC3=O)CC1` (single isomer, unassigned) [Example 14, N-(3-{[4-(3,3-dimethyl-1-oxo-2-oxa-7-azaspiro[4.5]dec-7-yl)piperidin-1-yl]carbonyl}thieno[2,3-b]pyridin-2-yl)-N′-methylurea], the pIC50 is 7.00 to 8.00 on Human ACC1 and 8.00 to 9.00 in experiment [1].

For the molecule `CNC(=O)Nc1sc2nc(C)ccc2c1C(=O)N1CCC(N2CCCC3(CC(=O)N(C(C)C)C3=O)C2)CC1` (single isomer, unassigned) [Example 18, N-(3-{[4-(2-isopropyl-1,3-dioxo-2,7-diazaspiro[4.5]dec-7-yl)piperidin-1-yl]carbonyl}-6-methylthieno[2,3-b]pyridin-2-yl)-N′-methylurea], the negative logarithm of the IC50 (pIC50) was 7.00 to 8.00 at Human ACC1 and 8.00 to 9.00 in experiment [1].

Consider `CCNC(=O)Nc1sc2nc(C)ccc2c1C(=O)N1CCC(N2CCCC3(CC(=O)N(C(C)C)C3=O)C2)CC1` (single isomer, unassigned) [Example 19, N-ethyl-N′-(3-{[4-(2-isopropyl-1,3-dioxo-2,7-diazaspiro[4.5]dec-7-yl)piperidin-1-yl]carbonyl}-6-methylthieno[2,3-b]pyridin-2-yl)urea], for which, at Human ACC1, the negative logarithm of the IC50 (pIC50) was 7.00 to 8.00.

Regarding `CNC(=O)Nc1sc2nc(C)ccc2c1C(=O)N1CCC(N2CCCC3(C2)CC(C)(C)OC3=O)CC1` (single isomer, unassigned) [Example 27, N-(3-{[4-(3,3-dimethyl-1-oxo-2-oxa-7-azaspiro[4.5]dec-7-yl)piperidin-1-yl]carbonyl}-6-methylthieno[2,3-b]pyridin-2-yl)-N′-methylurea], the pIC50 on Human ACC1 was 7.00 to 8.00; in experiment [1] it was 8.00 to 9.00.

Regarding `CCNC(=O)Nc1sc2nc(C)ccc2c1C(=O)N1CCC(N2CCCC3(C2)CC(C)(C)OC3=O)CC1` (single isomer, unassigned) [Example 28, N-(3-{[4-(3,3-dimethyl-1-oxo-2-oxa-7-azaspiro[4.5]dec-7-yl)piperidin-1-yl]carbonyl}-6-methylthieno[2,3-b]pyridin-2-yl)-N′-ethylurea], the pIC50 on Human ACC1 is 7.00 to 8.00; in experiment [1], 8.00 to 9.00.

Take `CCNC(=O)Nc1sc2nc(C)ccc2c1C(=O)N1CCC(N2CCCC3(CCN(C(C)C)C3=O)C2)CC1` (single isomer, unassigned) [Example 65, N-ethyl-N′-(3-{[4-(2-isopropyl-1-oxo-2,7-diazaspiro[4.5]dec-7-yl)piperidin-1-yl]carbonyl}-6-methylthieno[2,3-b]pyridin-2-yl)urea]: the pIC50 at Human ACC1 is 7.00 to 8.00; in experiment [1], 8.00 to 9.00.

Consider `CNC(=O)Nc1sc2ncccc2c1C(=O)N1CCC(N2CCCC3(C2)SC(=O)N(C(C)C)C3=O)CC1` (centres unmarked) [Example 11, N-(3-{[4-(3-isopropyl-2,4-dioxo-1-thia-3,7-diazaspiro[4.5]dec-7-yl)piperidin-1-yl]carbonyl}thieno[2,3-b]pyridin-2-yl)-N′-methylurea], for which the pIC50 on Human ACC1 was 7.00 to 8.00.

In the case of `CNC(=O)Nc1sc2nc(C)ccc2c1C(=O)N1CCC(N2CCCC3(C2)SC(=O)N(C(C)C)C3=O)CC1` (centres unmarked) [Example 31, N-(3-{[4-(3-isopropyl-2,4-dioxo-1-thia-3,7-diazaspiro[4.5]dec-7-yl)piperidin-1-yl]carbonyl}-6-methylthieno[2,3-b]pyridin-2-yl)-N′-methylurea], the pIC50 on Human ACC1 was 7.00 to 8.00.

Consider `CCNC(=O)Nc1sc2nc(C)ccc2c1C(=O)N1CCC(N2CCCC3(C2)N=C(C)N(C(C)C)C3=O)CC1` (centres unmarked) [Example 52], for which the pIC50 on Human ACC1 was 7.00 to 8.00.

With `CNC(=O)Nc1sc2nc(C)c(C)cc2c1C(=O)N1CCC(N2CCCC3(C2)CC(C)(C)OC3=O)CC1` (centres unmarked) [Example 74], the pIC50 in experiment [1] is 8.00 to 9.00.

For `CCNC(=O)Nc1sc2nc(C)c(C)cc2c1C(=O)N1CCC(N2CCCC3(C2)CC(C)(C)OC3=O)CC1` (centres unmarked) [Example 75], in experiment [1], the pIC50 is 8.00 to 9.00.

Consider `CCNC(=O)Nc1sc2nc(C(F)(F)F)ccc2c1C(=O)N1CCC(N2CCCC3(CC(=O)N(C(C)C)C3=O)C2)CC1` (centres unmarked) [Example 96, N-ethyl-N′-[3-{[4-(2-isopropyl-1,3-dioxo-2,7-diazaspiro[4.5]dec-7-yl)piperidin-1-yl]carbonyl}-6-(trifluoromethyl)thieno[2,3-b]pyridin-2-yl]urea], for which, on Human ACC1, the negative logarithm of the IC50 (pIC50) was 7.00 to 8.00.
